Test results reported in publication PMC5108032, “Discovery of a Quinoline-4-carboxamide Derivative with a Novel Mechanism of Action, Multistage Antimalarial Activity, and Potent in Vivo Efficacy” (Journal of Medicinal Chemistry, 2016).

Experiments:
[1] = Intrinsic clearance (Cli) in mouse liver microsomes; assay type: in vitro ADME; details: mouse liver microsome
Source text: (§1) inhibition at top, C= EC50, D= slope, x= inhibitor concentration and y= % inhibition. […]
(§2) reach 100% of inhibition, B was fixed to 100 only when at least 50% of inhibition was reached.
(§3) Plasmodium falciparum late stage (IV-V) gametocyte high content imaging assay Plasmodium falciparum NF54-pfs16-LUC-GFP stage IV-V Gametocytes were produced as described previously.5 Compounds were solubilized in DMSO and serially diluted in three concentrations per log standard curves in DM SO. One µl of compound was subsequently diluted in 25µl of water (4% DMSO) and 5µl transferred into the base of 384 well PerkinElmer CellCarrier plates. Forty-five µl of stage IV-V gametocytes (10%P in 0.1%H) were added to the imaging plates which were in turn sealed with a gas permeable membrane and incubated at 37°C, 5% CO 2, 5% O2, 90% N2 and 60% humidity […]
(§4) Post incubation, 5µl of MitoTracker® Red CM -H2Xros (MTR) solution (0.66ug/ml) was added to all wells and the plates incubated for a further 16hours. The assay plates were then imaged and the number of viable gametocytes determined for test compounds plus 0.4%DMSO and 5µM Puromycin.
(§5) (0.4%DMSO) control values. Percent inhibition was plotted against log compound concentration using a 4 parameter log dose, non-linear regression analysis, with sigmoidal dose response (variable slope) curve fit using Prizm 4.0. IC50 values were obtained from this curve fit. The compound testing was performed in duplicate point within two separate experiments.
(§6) Plasmodium berghei ookinete development assay
(§7) Assay was performed as previously reported.6 Briefly blood containing P. berghei CTRPp-GFP gametocytes was rapidly harvested from infected mice and introduced to test compounds pre-diluted in ookinete medium (to induce gamete formation and support ookinete development) in 96-well plates. Plates were incubated in the dark at 21°C for 22 hr before GFP fluorescence intensity measured in a plate reader. % inhibition of ookinete formation was calculated with reference to the fluorescence intensity values of a positive control (20 µM cycloheximide) and a solvent-only negative control (DMSO). All assays were performed in triplicate independent experiments and EC50 values calculated in Graphpad Prism.
(§8) The aqueous solubility of the test compounds was measured using laser nephelometry, as described previously.7 Compounds were subject to serial dilution from 10 mg/mL to 0.5 mg/mL in DMSO. An aliquot was then mixed with MilliQ water to obtain an aqueous dilution plate with a final concentration range of 100 – 5 μg/mL, with a final DMSO concentration of 1.0%. Triplicate aliquots were transferred to a flat bottomed polystyrene plate which was immediately read on the NEPHELOstar (BMG Lab Technologies). The amount of laser scatter caused by insoluble particulates (relative nephelometry units, RNU) was plotted against compound concentration using a segmental regression fit, with the point of inflection being quoted as the compounds aqueous solubility (μg/mL; […]
(§9) Intrinsic Clearance (Cli) experiments
(§10) The procedure was carried out as reported previously.7 Test compound (0.5 µM) was incubated with female CD1 mouse, male sprague-dawley rat or pooled human mixed gender liver microsomes (Xenotech LLC TM; 0.5 mg/mL 50 mM potassium phosphate buffer, pH 7.4) and the reaction initiated […]
by the addition of excess NADPH (8 mg/mL 50 mM potassium phosphate buffer, pH 7.4).
Immediately, at time zero, then at 3, 6, 9, 15 and 30 min an aliquot (50 μL) of the incubation mixture was removed and mixed with acetonitrile (100 μL) to stop the reaction. Internal standard was added to all samples, the samples centrifuged to sediment precipitated protein and the plates then sealed prior to UPLC-MS/MS analysis using a Quattro Premier XE (Waters Corporation, USA).
XLfit (IDBS, UK) was used to calculate the exponential decay and consequently the rate constant (k) from the ratio of peak area of test compound to internal standard at each timepoint. The rate of […]

[2] = Intrinsic clearance (Cli) in human liver microsomes; assay type: in vitro ADME; details: human liver microsome
Source text: as §1, §2, §3, §4, §5, §6, §7, §8, §9, §10
by the addition of excess NADPH (8 mg/mL 50 mM potassium phosphate buffer, pH 7.4). […]

Mouse pharmacokinetics = assay type: in vivo, female NMRI mice; details: intravenous at 3 mg/kg
Procedure: (100 µl) was then removed from both acceptor and donor compartments and mixed with acetonitrile (80 µl) containing an internal standard. The samples were centrifuged (10 min, 5 °C, 3270 g) to sediment precipitated protein and sealed prior to UPLC-MS/MS analysis using a Quattro Premier XE (Waters Corp, USA). Pe was calculated as shown in the below equation:
Pe (nm/sec) = 107 x - In [1 - CA (t) / Cequi]
CA(t) = peak area of compound present in acceptor well at time t = 18000 sec Cequi = [CD(t) * VD + CA(t) * VA] / (VD + VA)
VA = acceptor well volume
CD(t) = peak area of compound present in donor well at time t = 18000 sec Recovery of compound from donor and acceptor wells was calculated and data was only accepted when recovery exceeded 70 %.
Human ether-à-go-go related gene (hERG) K+ assay (Outsourced)
Compounds were tested for inhibition of the human ether-à-go-go-related gene (hERG) K+ channel using IonWorks patch clamp electrophysiology. Eight-point concentration-response curves were generated on 2 occasions using 3-fold serial dilutions from the maximum final assay concentration.
Compound was dosed as a bolus solution intravenously (12) at 3mg free base/kg (dose volume: 5 mL/kg; dose vehicle: 10% DMSO, 90% saline) to female NMRI mice (n=3) or dosed orally (12 and 13) by gavage as a solution at 10 mg free base/kg (dose volume: 10mL/kg; Dose vehicle: 5 or 10% DMSO; 40% PEG400; 50 or 55% distilled water) to female NMRI mice (n=3/dose level). Female NMRI mice were chosen as these represent the sex and strain used for the P.berghei mouse model of malaria. Blood samples (10 µl) were taken from each mouse at 5, 15 and 30 minutes, 1, 2, 4, 6, and 8 hours post-dose, mixed with two volumes of distilled water and stored frozen until UPLC-MS/MS analysis. The level of each compound in mouse blood was determined by UPLC-MS/MS as previously reported.9 Pharmacokinetic parameters were derived from the blood concentration time curve using PKsolutions software v 2.0 (Summit Research Services, USA). […]

Structure (SMILES) | MLM Cli [1] | HLM Cli [2] | Clb (Mouse pharmacokinetics)
O=C(NCCN1CCCC1)c1cc(-c2ccc(CN3CCOCC3)cc2Cl)nc2ccc(F)cc12 [Compound 42, 2-(2-Chloro-4-(morpholinomethyl)phenyl)-6-fluoro-N-(2-(pyrrolidin-1-yl)ethyl)quinoline-4-carboxamide] | 0.5 mL min^–1 g^–1 | – | –
O=C(NCCN1CCCC1)c1cc(NCCCN2CCOCC2)nc2ccc(F)cc12 [Compound 25, 6-Fluoro-2-((3-morpholinopropyl)amino)-N-(2-(pyrrolidin-1-yl)ethyl)quinoline-4-carboxamide] | 0.8 mL min^–1 g^–1 | <0.5 mL min^–1 g^–1 | 14 mL min^–1 kg^–1
O=C(NCCN1CCCC1)c1cc(-c2ccc(CN3CCOCC3)cc2F)nc2ccc(F)cc12 [Compound 41] | <0.5 mL min^–1 g^–1 | 1.5 mL min^–1 g^–1 | –
O=C(NCCN1CCCC1)c1cc(-c2ccc(S(=O)(=O)N3CCOCC3)cc2)nc2ccc(F)cc12 [Compound 38, 6-Fluoro-2-(4-(morpholinosulfonyl)phenyl)-N-(2-(pyrrolidin-1-yl)ethyl)quinoline-4-carboxamide] | 1.9 mL min^–1 g^–1 | – | –
O=C(NCCN1CCCC1)c1cc(NCCCCN2CCOCC2)nc2ccc(Cl)cc12 [Compound 27, 6-Chloro-2-((4-morpholinobutyl)amino)-N-(2-(pyrrolidin-1-yl)ethyl)quinoline-4-carboxamide] | 2.0 mL min^–1 g^–1 | <1 mL min^–1 g^–1 | 4 mL min^–1 kg^–1
O=C(NCCN1CCCC1)c1cc(NCCC2CCOCC2)nc2ccc(Cl)cc12 [Compound 30, 6-Chloro-N-(2-(pyrrolidin-1-yl)ethyl)-2-((2-(tetrahydro-2H-pyran-4-yl)ethyl)amino)quinoline-4-carboxamide] | 2 mL min^–1 g^–1 | 1 mL min^–1 g^–1 | 34 mL min^–1 kg^–1
